From the supplement of paper PMC11208160

Test: recombinant barcode read abundance after kanamycin selection (control-corrected) (log10(CPM+1)); higher = more efficient recombination; sequences stand for … in AGTGCAGAGAAAATCGGCCAGTTTTCTCTGCCTGCAGTCCGCATGCCGT…AGATTTATGCAGCGGACTGCCTTTCTCCCAAAGTGATAAACCGGACAGTATCATGGACCGGTTTTCCCGGTAATCCGTATTTGCAAGGTTGGTTTCACT; site = the 11-nt target
Description: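 Pooled E. coli target-specificity screen for the IS621 bridge recombinase. Each library plasmid pairs an 11-nt target (CT core) with a bridge RNA whose target-binding loop (9-nt LTG + 4-nt RTG) is reprogrammed; the rest of the 177-nt WT IS621 bridge RNA scaffold is fixed. The plasmid is co-electroporated with a WT donor plasmid; recombinase is induced with 0.1 mM IPTG and recombinants are selected on kanamycin. Recombinant barcodes are sequenced, converted to CPM, averaged over two biological replicates and corrected by the unselected control CPM. Molecule = full bridge RNA written as DNA: LTG = specificity nt 1-9, RTG = reverse complement of specificity nt 8-11, in the WT scaffold.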
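Throughout, for recombinant UMI read abundance after kanamycin selection (control-corrected): IS621 bridge recombinase in Escherichia coli cells against a fixed T5 target plasmid.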
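Throughout, for recombinant barcode read abundance after kanamycin selection (control-corrected): IS621 recombinase and bridge RNA in Escherichia coli cells.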

Compared with “AAACCGCCTTGGGTTCTAACCTGTTGCCT (site AAACCGCCTAG)”, “AAACCGCCTTGGGTTCTAACCTGTTGCCT (site AAACGGCCTAG)” is lower in “recombinant barcode read abundance (log10)” value: 1.11 for the first, 0.163 for the second.

First: AAACGGCCTTGGGTTCTAACCTGTTGCCT (site AAACCGCCTAG)
Second: AAACGGCCTTGGGTTCTAACCTGTTGCCT (site AAACGGCCTAG)
The “recombinant barcode read abundance (log10)” value of the first is lower: 0.147 for the first, 0.522 for the second.

First: AAACGGTCTTGGGTTCTAACCTGTTGCTA (site AAACGGTCTTA)
Second: AAACGGTCTTGGGTTCTAACCTGTTGCTA (site AAATGGTCTTA)
The “recombinant barcode read abundance (log10)” value of the first is higher: 1.53 for the first, 0.131 for the second.

Going from “AAAGCTACTTGGGTTCTAACCTGTTGCCT (site AAAGCTACTAG)” to “AAAGCTACTTGGGTTCTAACCTGTTGCCT (site AAAGCTCCTAA)”, the “recombinant barcode read abundance (log10)” value falls from 1.11 to 0.124.

First: AAAGGGGCTTGGGTTCTAACCTGTTGCCT (site AAAGGGGCTAG)
Second: AAAGGGGCTTGGGTTCTAACCTGTTGCCT (site TTGCATTCTCA)
The “recombinant barcode read abundance (log10)” value of the first is higher: 2.2 for the first, 0.155 for the second.

Going from “AAAGGGTCTTGGGTTCTAACCTGTTGCCT (site AAAGGGTCTAG)” to “AAAGGGTCTTGGGTTCTAACCTGTTGCCT (site ACAGGGTCTAG)”, the “recombinant barcode read abundance (log10)” value falls from 1.8 to 0.327.

First: AAAGGGTCTTGGGTTCTAACCTGTTGCCT (site AGAGGGTCTAG)
Second: AAAGGGTCTTGGGTTCTAACCTGTTGCCT (site ATAGGGTCTAG)
The “recombinant barcode read abundance (log10)” value of the first is lower: 0.0828 for the first, 0.689 for the second.

Going from “AAAGGTCCTTGGGTTCTAACCTGTTGCAG (site AAAGGTCCTCT)” to “AAAGGTCCTTGGGTTCTAACCTGTTGCAG (site CTTTAGTCTTA)”, the “recombinant barcode read abundance (log10)” value falls from 2.69 to 0.0927.

First: AAAGGTTCTTGGGTTCTAACCTGTTGCCT (site AAAGGTTCTAG)
Second: AAAGGTTCTTGGGTTCTAACCTGTTGCCT (site ACAGGTTCTAG)
The “recombinant barcode read abundance (log10)” value of the first is higher: 1.58 for the first, 0.0935 for the second.

“AAAGGTTCTTGGGTTCTAACCTGTTGCCT (site AGAGGTTCTAG)” and “AAAGGTTCTTGGGTTCTAACCTGTTGCCT (site ATAGGTTCTAG)” are within 0.2 log units of each other in “recombinant barcode read abundance (log10)” value: 0.0624 for the first, 0.126 for the second.

First: AAAGTACCTTGGGTTCTAACCTGTTGCCT (site AAAGTACCTAG)
Second: AAAGTACCTTGGGTTCTAACCTGTTGCCT (site CAAGTACCTAG)
The “recombinant barcode read abundance (log10)” value of the first is higher: 2 for the first, 0.741 for the second.

Compared with “AAAGTACCTTGGGTTCTAACCTGTTGCCT (site GAAGTACCTAG)”, “AAAGTACCTTGGGTTCTAACCTGTTGCCT (site TAAGTACCTAG)” is higher in “recombinant barcode read abundance (log10)” value: 0.0449 for the first, 1.16 for the second.

Going from “AAAGTCCCTTGGGTTCTAACCTGTTGCCT (site AAAGTCCCTAG)” to “AAAGTCCCTTGGGTTCTAACCTGTTGCCT (site CAAGTCCCTAG)”, the “recombinant barcode read abundance (log10)” value falls from 1.03 to 0.361.

Going from “AAAGTCCCTTGGGTTCTAACCTGTTGCCT (site GAAGTCCCTAG)” to “AAAGTCCCTTGGGTTCTAACCTGTTGCCT (site TAAGTCCCTAG)”, the “recombinant barcode read abundance (log10)” value rises from 0.218 to 0.481.

Going from “AAATGGTCTTGGGTTCTAACCTGTTGCTA (site AAACGGTCTTA)” to “AAATGGTCTTGGGTTCTAACCTGTTGCTA (site AAATGGTCTTA)”, the “recombinant barcode read abundance (log10)” value rises from 0.814 to 1.69.

Going from “AAATGTACTTGGGTTCTAACCTGTTGCCT (site AAATGTACTAG)” to “AAATGTACTTGGGTTCTAACCTGTTGCCT (site TGGGTCCCTTC)”, the “recombinant barcode read abundance (log10)” value falls from 1.04 to 0.0555.

Going from “AACAATGCTTGGGTTCTAACCTGTTGCCT (site AACAATGCTAG)” to “AACAATGCTTGGGTTCTAACCTGTTGCCT (site AACACTGCTAG)”, the “recombinant barcode read abundance (log10)” value falls from 0.713 to 0.33.

“AACAATGCTTGGGTTCTAACCTGTTGCCT (site AACAGTGCTAG)” and “AACAATGCTTGGGTTCTAACCTGTTGCCT (site AACATTGCTAG)” are within 0.2 log units of each other in “recombinant barcode read abundance (log10)” value: 0.207 for the first, 0.0444 for the second.

Going from “AACAGACCTTGGGTTCTAACCTGTTGCCT (site AACAGACCTAG)” to “AACAGACCTTGGGTTCTAACCTGTTGCCT (site CACAGACCTAG)”, the “recombinant barcode read abundance (log10)” value falls from 1.62 to 0.116.

Compared with “AACAGACCTTGGGTTCTAACCTGTTGCCT (site GACAGACCTAG)”, “AACAGACCTTGGGTTCTAACCTGTTGCCT (site TACAGACCTAG)” is higher in “recombinant barcode read abundance (log10)” value: 0.291 for the first, 0.686 for the second.

Going from “AACAGGGCTTGGGTTCTAACCTGTTGCCG (site AACAGGGCTCG)” to “AACAGGGCTTGGGTTCTAACCTGTTGCCG (site TGGCATCCTAC)”, the “recombinant barcode read abundance (log10)” value falls from 1.22 to 0.0251.

First: AACAGGTCTTGGGTTCTAACCTGTTGCCT (site AACAGGTCTAG)
Second: AACAGGTCTTGGGTTCTAACCTGTTGCCT (site ACCAGGTCTAG)
The “recombinant barcode read abundance (log10)” value of the first is higher: 0.902 for the first, 0.175 for the second.

“AACAGGTCTTGGGTTCTAACCTGTTGCCT (site AGCAGGTCTAG)” and “AACAGGTCTTGGGTTCTAACCTGTTGCCT (site ATCAGGTCTAG)” are within 0.2 log units of each other in “recombinant barcode read abundance (log10)” value: 0.0529 for the first, 0.0485 for the second.

“AACATTCCTTGGGTTCTAACCTGTTGCCT (site AACATTCCTAG)” and “AACATTCCTTGGGTTCTAACCTGTTGCCT (site CACATTCCTAG)” are within 0.2 log units of each other in “recombinant barcode read abundance (log10)” value: 0.151 for the first, 0 for the second.

Going from “AACATTCCTTGGGTTCTAACCTGTTGCCT (site GACATTCCTAG)” to “AACATTCCTTGGGTTCTAACCTGTTGCCT (site TACATTCCTAG)”, the “recombinant barcode read abundance (log10)” value falls from 0.355 to 0.0261.

“AACATTGCTTGGGTTCTAACCTGTTGCCT (site AACAATGCTAG)” and “AACATTGCTTGGGTTCTAACCTGTTGCCT (site AACACTGCTAG)” are within 0.2 log units of each other in “recombinant barcode read abundance (log10)” value: 0.765 for the first, 0.695 for the second.

Compared with “AACATTGCTTGGGTTCTAACCTGTTGCCT (site AACAGTGCTAG)”, “AACATTGCTTGGGTTCTAACCTGTTGCCT (site AACATTGCTAG)” is higher in “recombinant barcode read abundance (log10)” value: 0.372 for the first, 0.979 for the second.

Compared with “AACCATCCTTGGGTTCTAACCTGTTGCCT (site AACCAGCCTAG)”, “AACCATCCTTGGGTTCTAACCTGTTGCCT (site AACCATCCTAG)” is higher in “recombinant barcode read abundance (log10)” value: 0.0589 for the first, 1.51 for the second.

Test: recombinant UMI read abundance after kanamycin selection (control-corrected) (log10(CPM+1)); higher = more efficient recombination; extreme values may be limits of the assay; sequences stand for … in AGTGCAGAGAAAATCGGCCAGTTTTCTCTGCCTGCAGTCCGCATGCCGTGGGACCCCTTGGGTTCTAACCTGTTGCCTAGATTTATGCAGCGGACTGCCTTTCTCCCAAAGTGATAAACCGG…AGGTTGGTTTCACT; site = the 11-nt donor
Method in brief: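 Counts of recombinant UMIs were reported as log10(CPM+1). Before that, they were converted to CPM, averaged over replicates and scaled using control-derived factors. They came from PCR across the donor–target junction after Escherichia coli carrying the pair library and target plasmid was plated on IPTG (0.07 mM) plus kanamycin, or unselected, in two replicates each.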

“TTTGCGGCATGGACCGGTTTTCCCGGTAATCCGTATTTGCT (site TTTGGGGCTAG)” and “TTTGCGGCATGGACCGGTTTTCCCGGTAATCCGTATTTGCT (site TTTGTGGCTAG)” are within 0.2 log units of each other in “recombinant UMI read abundance (log10)” value: 0.00746 for the first, 0.00957 for the second.

“TTTGCGGCATGGACCGGTTTTCCCGGTAATCCGTATTTGCT (site TTTTCGGCTAG)” and “TTTGGCACATGGACCGGTTTTCCCGGTAATCCGTATTTGGC (site TTTGGCACTGC)” are within 0.2 log units of each other in “recombinant UMI read abundance (log10)” value: 0.00374 for the first, 0.00668 for the second.

First: TTTGGGGCATGGACCGGTTTTCCCGGTAATCCGTATTTGCT (site TTTGAGGCTAG)
Second: TTTGGGGCATGGACCGGTTTTCCCGGTAATCCGTATTTGCT (site TTTGCGGCTAG)
The “recombinant UMI read abundance (log10)” value of the first is higher: 0.621 for the first, 0.00428 for the second.

Going from “TTTGGGGCATGGACCGGTTTTCCCGGTAATCCGTATTTGCT (site TTTGGGGCTAG)” to “TTTGGGGCATGGACCGGTTTTCCCGGTAATCCGTATTTGCT (site TTTGTGGCTAG)”, the “recombinant UMI read abundance (log10)” value falls from 1.61 to 0.0107.

Going from “TTTGTAGCATGGACCGGTTTTCCCGGTAATCCGTATTTGGA (site TTTGTAGCTTC)” to “TTTGTGTCATGGACCGGTTTTCCCGGTAATCCGTATTTGCG (site TTTGTGTCTCG)”, the “recombinant UMI read abundance (log10)” value rises from 0.00646 to 0.535.

For “TTTGTTTCATGGACCGGTTTTCCCGGTAATCCGTATTTGTT (site TTTGTTTCTAA)”, the “recombinant UMI read abundance (log10)” value was 0.
